# In ChEMBL document CHEMBL4825742, “Novel Histone Deacetylase 6 Inhibitors for Treating Alzheimer's Disease and Cancer” (ACS Med Chem Lett, 2021):
# pIC50: −log10 of the molar value.
# Target: T1, Protein deacetylase HDAC6 (Homo sapiens, UniProt Q9UBN7)
# T1 sequence (Q9UBN7 whole entry): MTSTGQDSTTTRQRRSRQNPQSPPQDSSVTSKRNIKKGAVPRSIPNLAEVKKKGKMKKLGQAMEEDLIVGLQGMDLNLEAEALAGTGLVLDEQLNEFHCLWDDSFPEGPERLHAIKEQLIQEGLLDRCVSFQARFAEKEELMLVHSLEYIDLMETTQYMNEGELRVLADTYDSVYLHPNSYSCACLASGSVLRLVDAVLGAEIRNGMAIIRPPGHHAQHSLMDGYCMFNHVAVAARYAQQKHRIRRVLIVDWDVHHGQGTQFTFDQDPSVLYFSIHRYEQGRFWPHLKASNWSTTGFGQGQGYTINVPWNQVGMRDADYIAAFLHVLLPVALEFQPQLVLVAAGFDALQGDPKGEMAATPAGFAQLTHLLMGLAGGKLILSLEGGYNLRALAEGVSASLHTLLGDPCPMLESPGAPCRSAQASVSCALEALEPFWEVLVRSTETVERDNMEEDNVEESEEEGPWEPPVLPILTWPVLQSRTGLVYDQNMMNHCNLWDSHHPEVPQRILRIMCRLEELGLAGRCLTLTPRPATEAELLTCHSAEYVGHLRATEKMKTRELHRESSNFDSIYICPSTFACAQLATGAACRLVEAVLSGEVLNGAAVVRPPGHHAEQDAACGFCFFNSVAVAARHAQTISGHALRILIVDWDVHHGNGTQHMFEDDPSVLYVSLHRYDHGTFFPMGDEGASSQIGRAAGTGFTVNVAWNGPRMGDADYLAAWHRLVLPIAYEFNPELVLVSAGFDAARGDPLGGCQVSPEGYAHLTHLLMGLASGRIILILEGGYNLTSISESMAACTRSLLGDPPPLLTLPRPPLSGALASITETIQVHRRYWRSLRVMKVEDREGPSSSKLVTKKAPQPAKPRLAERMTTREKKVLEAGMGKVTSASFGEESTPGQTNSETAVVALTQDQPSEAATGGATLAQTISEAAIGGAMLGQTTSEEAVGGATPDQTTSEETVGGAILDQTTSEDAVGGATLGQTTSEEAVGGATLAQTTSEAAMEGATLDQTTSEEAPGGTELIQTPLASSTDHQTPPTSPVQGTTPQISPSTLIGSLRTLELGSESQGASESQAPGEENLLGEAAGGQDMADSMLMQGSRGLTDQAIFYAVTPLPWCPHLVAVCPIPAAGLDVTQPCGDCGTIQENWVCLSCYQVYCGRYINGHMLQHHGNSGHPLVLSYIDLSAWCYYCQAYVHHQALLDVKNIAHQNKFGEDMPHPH
# Assay: Inhibition of human full length HDAC6 expressed in baculovirus expression system using FAM-RHKK(Ac)-NH2 as substrate incubated for 5 hrs by […] endpoint assay
row,pIC50,Structure (SMILES)
1,9.00,CN1CC2(CCCCC2)CC[C@H]1Cc1cc(F)cc(C(=O)NO)c1
2,9.00,O=C(NO)c1cc(F)c2c(c1)CCn1cccc1-2
3,9.00,O=C(NO)c1cc(F)c2c(c1)CCN(C1CCC1)C2
4,9.00,Cn1c2c(c3ccccc31)CCN(Cc1ccc(C(=O)NO)cc1F)C2
5,9.00,CN1Cc2cc(C(=O)NO)ccc2CN1Cc1ccccc1
6,9.00,O=C(NO)c1ccc(CN2CC3(CCOC3)C2)c(F)c1
